Reference: article PMC12322260, “Anticancer activity of triterpene glycosides from the sea star Solaster pacificus” (Scientific Reports, 2025)
“And” between values parts separate entries of the source, which are not always exact repeats. Equal entries are not always repeated.

Tests used:
Format in all cases: cell-based, human
[1] = tested on: PC3-DR cells; assay: Drug combination MTT assay, SynergyFinder ZIP analysis; details: 48 h
Procedure: (§1) Fig. 5 Effects of CuC1 in combination with taxanes and platinum agents. PC3-DR and 22Rv1 cells were co-treated with cisplatin (Cis), carboplatin (Carbo), docetaxel (Doce), or cabazitaxel (Caba) in combination with CuC1 at the indicated concentrations for 48 h. Cellular viability was evaluated using the MTT assay (number of biological replicates n = 3.) and is represented in the Supplementary Table S2. The cytotoxic effects were further analyzed, and 3D heat maps were constructed using SynergyFinder 3.0 software. The drug effects in combination (synergistic, additive, or antagonistic) were analyzed and visualized using the ZIP algorithm and are indicated by δ-score. δ > 10: Synergistic interactions (dark red area); […]: additive effect; δ < − 10: Antagonistic interactions (dark green area). A ZIP synergy score represents a mean δ overall the concentration range used.
(§2) The effect of combinational treatment with established chemotherapies was evaluated as previously reported^54. In brief, cells were exposed to individual drugs of their combinations for 48 h, and the viability was measured by MTT assay and was then analyzed using SynergyFinder 3.0 software (https://synergyfinder.fimm.fi) and the ZIP score algorithm. Statistical analysis was conducted automatically by the software using its inbuilt algorythms based on the input data type and size.

[2] = tested on: 22Rv1 cells; assay: as above; details: 22Rv1, 48 h
Procedure: as §1, §2

[3] = tested on: LNCaP cells; assay: MTT cytotoxicity assay; details: 48 h, mean ± SD
Excerpt: (§3) The cell lines were purchased from ATCC (Manassas, VA, USA) or ECACC (Salisbury, UK). The following cell lines were used: Human prostate cancer cells LNCaP (ATCC; RRID:CVCL_0395), VCaP (ECACC; RRID:CVCL_2235), 22Rv1 (ATCC; RRID:CVCL_1045), PC3 (ATCC; RRID:CVCL_0035), and DU145 (ATCC; RRID:CVCL_0105); human prostate non-cancer cells PNT2 (ATCC; RRID:CVCL_2164) and RWPE-01 (ATCC; RRID:CVCL_3791). Human non-cancer embryonic kidney cells HEK293T (ECACC; RRID:CVCL_0063) and human fibroblast cells MRC-9 (ECACC; RRID:CVCL_2629). The docetaxel-resistant cells PC3-DR were generated by long-term treatment of human prostate cancer PC3 cells with sublethal concentrations of docetaxel as previously described[32] and were provided by Prof. Z. Culig (Innsbruck Medical University, Austria). All cell lines were recently authenticated by a commercial service (Multiplexion GmbH, Heidelberg, Germany) and were cultured as previously described[58],[59]. Cells were kept in culture for a maximum of three months and were routinely examined for bacterial, fungal, and mycoplasma infections.

[4] = tested on: MRC-9 cells; assay: MTT cytotoxicity assay; details: MRC-9, 48 h, mean ± SD
Excerpt: as §3

[5] = tested on: DU145 cells; assay: MTT cytotoxicity assay; details: DU145, 48 h, mean ± SD
Excerpt: as §3

[6] = tested on: VCaP cells; assay: MTT cytotoxicity assay; details: 48 h, mean ± SD
Excerpt: as §3

[7] = tested on: PC3-DR cells; assay: MTT cytotoxicity assay; details: 48 h, mean ± SD
Excerpt: as §3

[8] = tested on: PC3 cells; assay: MTT cytotoxicity assay; details: PC3, 48 h, mean ± SD
Excerpt: as §3

[9] = tested on: PNT2 cells; assay: MTT cytotoxicity assay; details: PNT2, 48 h, mean ± SD
Excerpt: as §3

[10] = tested on: 22Rv1 cells; assay: MTT cytotoxicity assay; details: 22Rv1, 48 h, mean ± SD
Excerpt: as §3

[11] = tested on: RWPE-1 cells; assay: MTT cytotoxicity assay; details: RWPE-1, 48 h, mean ± SD
Excerpt: as §3

[12] = tested on: HEK293T cells; assay: MTT cytotoxicity assay; details: 48 h, mean ± SD
Excerpt: as §3

[13] = tested on: non-cancer PNT2, RWPE-1, HEK293T, MRC-9 cells vs cancer PC3, 22Rv1, DU145, VCaP, LNCaP cells; assay: Selectivity index from MTT IC50 values; details: [mean IC50 in non-cancer cells] / [mean IC50 in cancer cells]; Doce IC50 in PNT2 and MRC-9 assumed 500 nM

CO[C@H]1C(=O)[C@]2(C)[C@@H](OC)C[C@H]3OC[C@@]3(OC(C)=O)[C@H]2[C@H](OC(=O)c2ccccc2)[C@]2(O)C[C@H](OC(=O)[C@H](O)[C@@H](NC(=O)OC(C)(C)C)c3ccccc3)C(C)=C1C2(C)C [Caba, cabazitaxel]
Response (% of effect) ([1]; Caba 12.5 nM alone): 26.4286% and 23.41% | Response (% of effect) ([1]; Caba 25 nM alone): 28.07% and 33.73% | Response (% of effect) ([1]; Caba 50 nM alone): 43.53% and 46.12% | Response (% of effect) ([1]; Caba 100 nM alone): 53.45% and 58.01% | Response (% of effect) ([2]; Caba 0.25 nM alone): 3.714% | Response (% of effect) ([2]; Caba 0.5 nM alone): 20.36% and 24.57% | Response (% of effect) ([2]; Caba 1 nM alone): 27.6928% and 30.03% | Response (% of effect) ([2]; Caba 2 nM alone): 32.86% and 33.2%

N.N.[Cl][Pt][Cl] [Cis, cisplatin]
Response (% of effect) ([1]; Cis 1.25 μM alone): 12.8% and 15.79% | Response (% of effect) ([1]; Cis 2.5 μM alone): 18.7% and 21.63% | Response (% of effect) ([1]; Cis 5 μM alone): 29.8412% and 29.49% | Response (% of effect) ([1]; Cis 10 μM alone): 50.19% and 51.55% | Response (% of effect) ([2]; Cis 2.5 μM alone): 17.58% and 11.05% | Response (% of effect) ([2]; Cis 5 μM alone): 26.89% and 27.91% | Response (% of effect) ([2]; Cis 10 μM alone): 40.95% and 37.6% | IC50 [3]: 2750 ± 390 nM | IC50 [4]: 6.75 ± 2.15 µM | IC50 [5]: 1320 ± 310 nM | IC50 [6]: 5.02 ± 2.73 µM | IC50 [7]: 6.89 ± 2.29 µM | IC50 [8]: 34.6 ± 6.62 µM | IC50 [9]: 9.41 ± 1.82 µM | IC50 [10]: 993 ± 200 nM | IC50 [11]: 9.02 ± 1.52 µM | IC50 [12]: 6.44 ± 0.65 µM | Selectivity index (SI) [13]: 0.88

N.N.O=C([O-])C1(C(=O)[O-])CCC1.[Pt+2] [Carbo, carboplatin]
Response (% of effect) ([1]; Carbo 6.25 μM alone): 0.01% and 9.352% | Response (% of effect) ([1]; Carbo 12.5 μM alone): 6.12% and 8.386% | Response (% of effect) ([2]; Carbo 12.5 μM alone): 0.01% and 4.629% | Response (% of effect) ([2]; Carbo 25 μM alone): 11.3613% and 13.96% | Response (% of effect) ([2]; Carbo 50 μM alone): 22.27% and 31.0235% | Response (% of effect) ([2]; Carbo 100 μM alone): 32.94% and 38.66%
